# Results: PMC6522524 (Nature Communications, 2019)
# Values joined by “and” are separate entries in the source; they are usually repeats but may differ in a detail not shown here. Equal entries are not always repeated. Where two headings read alike, the source gives them in different places.
# How the values were obtained:
# [1] = test system: HBV (ayw subtype, genotype D) replicon in HepG2.2.15 cells; assay: microbe, parasite or virus in culture; format: cell-based, Hepatitis B virus; settings: for activity at 10 µM: Hepatitis B virus, HepG2.2.15, 144 h, 6 days
# [2] = test system: HBsAg in HepG2.2.15 cells; assay: Secreted HBsAg ELISA, HepG2.2.15 cells; format: cell-based, Hepatitis B virus; settings: 6 days
# Protocol: (§1) Secreted HBsAg (f, i respectively) was quantified by ELISA.
# (§2) An HBsAg ELISA kit (KA0286, Abnova) was used to quantify HBsAg protein. Briefly, culture media were incubated in individual wells of the capture plates for 2 h. After washing, horseradish peroxidase-labeled rabbit anti-HBV surface antibody was added, followed by incubation for an additional 2 h. The substrate solution was added for 15–60 min and absorbance at 450 nm was measured.
# in vitro [3] = settings: human, Cell viability(%), HepG2.2.15, 10 μM, 6 days
# [4] = test system: HepG2 cells transfected with pHBV1.2×; settings: HBV 1.2x adr, 10 μM, 6 days, Sample1-3
# [5] = test system: HBsAg in HepG2 cells transfected with pHBV1.2×; assay: Secreted HBsAg ELISA, HepG2 cells transfected with pHBV1.2×; format: cell-based, Hepatitis B virus; settings: 10 μM, 6 days
# Protocol: as §1, §2
# in vitro [6] = settings: human, Cell viability(%), HBV 1.2x adr, 10 μM, 6 days
# [7] = test system: HBV transcripts in HepG2 cells transfected with pHBV1.2×; assay: HBV transcription in HepG2 cells transfected with pHBV1.2×, quantitative RT-PCR; format: cell-based, Hepatitis B virus; settings: Suppl. fig. 12c, ETV, Control = 1
# Protocol: Quantitative RT-PCR with primers that detect three HBV regions (R1, R2, and R3, Supplementary Table 1) was used to measure HBV transcription. This RT-PCR detects pgRNA and precore RNA (3.5 kB), two HBV surface-encoding RNAs (2.5 kB and 2.1 kB), and HBx-encoding RNA (0.7 kB)[55]. PCR conditions were 95 °C for 10 min initially, then 50 cycles of 95 °C for 30 s, 60 °C for 60 s and 72 °C for 30 s, and finally 1 cycle of 95 °C for 60 s, 55 °C for 30 s and 95 °C for 30 s. […]
# a Schematic depiction of the R1, R2, and R3 regions of the HBV genome that were targeted by quantitative RT-PCR to quantitate the transcription of pgRNA, two HBV surface RNAs, and HBx RNA. […]
# c Region 3 transcription in ciclopirox-treated (b) HepG2.2.15 cells and (c) HepG2 cells transfected with the pHBV1.2× plasmid. d The promoter analysis of ciclopirox-treated HepG2 cells transfected with pGL3/HBV pgRNA promoter or pGL3/HBV sRNA promoter. The data shown in (b – d) represent two
# [8] = test system: HBV pgRNA promoter, HBV sRNA promoter; assay: Promoter analysis in HepG2 cells transfected with pGL3/HBV pgRNA promoter or pGL3/HBV sRNA promoter; format: cell-based, Hepatitis B virus; settings: ETV
# Description: (§3) a Schematic depiction of the R1, R2, and R3 regions of the HBV genome that were targeted by
# (§4) quantitative RT-PCR to quantitate the transcription of pgRNA, two HBV surface RNAs, and HBx RNA.
# (§5) pGL3/HBV pgRNA promoter or pGL3/HBV sRNA promoter. The data shown in (b – d) represent two
# [9] = test system: HBV pgRNA/precore RNA in HepG2.2.15 cells; format: cell-based, Hepatitis B virus
# Protocol: Fig. 1 Effect of FDA-approved compounds on HBV replication. a Schematic depiction of the primary screening analysis. HepG2.2.15 cells, which were stably transfected with HBV replicons, were treated with 978 FDA-approved drugs (1 μM) for 3 days. Entecavir (ETV) (1 μM) served as positive control. […] Quantitative RT-PCR was performed after 6 days of incubation. d Effect of the 19 candidates on intracellular HBV capsid assembly. Huh-7 cells were transfected with pCDNA3-Core and exposed after 12 h to the 19 candidates (1 μM) for 36 h. The cells were lysed and assembled HBV core particles were isolated by sucrose step gradient ultracentrifugation, resolved on 1% agarose gels, and subjected to immunoblot analysis with anti-HBV core antibody.
# Quantitative RT-PCR with primers that detect three HBV regions (R1, R2, and R3, Supplementary Table 1) was used to measure HBV transcription. This RT-PCR detects pgRNA and precore RNA (3.5 kB), two HBV surface-encoding RNAs (2.5 kB and 2.1 kB), and HBx-encoding RNA (0.7 kB)[55]. PCR conditions were 95 °C for 10 min initially, then 50 cycles of 95 °C for 30 s, 60 °C for 60 s and 72 °C for 30 s, and finally 1 cycle of 95 °C for 60 s, 55 °C for 30 s and 95 °C for 30 s.
# as §3, §4, §5
# [10] = test system: HBV (pHBV1.2× adr) in transfected HepG2 cells; assay: microbe, parasite or virus in culture; format: cell-based, Hepatitis B virus; settings: 10 μM, 6 days
# [11] = test system: HBV (pHBV1.2× adr) in transfected HepG2 cells; assay: microbe, parasite or virus in culture; format: cell-based, Hepatitis B virus; settings: 10 μM, 6 days; remark: listed apart in the source
compound,measurement,setting,value
"C=C1[C@H](CO)[C@@H](O)C[C@@H]1n1cnc2c(=O)[nH]c(N)nc21 [ETV, entecavir]",HBV DNA particle secretion was reduced by,"[1]; 1 μM, 3 days' incubation",42.1 ± 14.1%
same,activity at 10 µM,"[1]; HepG2.2.15 (figure 4d), 10 μM, read-out: Relative secreted HBV DNA level (Folds), AVERAGE",1.36%
same,activity at 10 µM,"[1]; HepG2.2.15, 10 μM, read-out: Relative secreted HBV DNA level (Folds), individual samples",1.96%
same,"Relative secreted HBsAg (Folds), AVERAGE","[2]; HepG2.2.15 (figure 4f), 10 μM",0.9837 Folds
same,"Relative secreted HBsAg (Folds), individual samples","[2]; HepG2.2.15, 10 μM, Sample1-2",0.9818 Folds and 0.9857 Folds
same,viability at 10 µM,in vitro [3]; AVERAGE,101%
same,viability at 10 µM,"in vitro [3]; individual samples, Sample1-3",101%
same,"Cell viability(%), individual samples",[4],100.151% and 99.4005%
same,"Relative secreted HBsAg (Folds), AVERAGE",[5]; HBV 1.2x adr (figure 4i),0.996 Folds
same,"Relative secreted HBsAg (Folds), individual samples","[5]; HBV 1.2x adr, Sample1-2",1.007 Folds and 0.9855 Folds
same,viability at 10 µM,in vitro [6]; AVERAGE,99.6%
same,viability at 10 µM,"in vitro [6]; individual samples, Sample1-3",99.3%
same,"Relative HBV transcript R1, Sample1-3","[7]; R1, single samples",0.9971 and 1.095 and 1.085
same,"Relative HBV transcript R2, AVERAGE",[7]; R2,1.083
same,"Relative HBV transcript R3, AVERAGE",[7]; R3,0.953
same,"Relative HBV transcript R3, Sample1-3","[7]; R3, single samples",0.9903 and 0.9758 and 0.8935
same,"Relative pgRNA promoter activity, AVERAGE","[8]; pgRNA promoter, Control = 1",1.039
same,"Relative pgRNA promoter activity, Sample1-3","[8]; pgRNA promoter, single samples",0.9019 and 1.084 and 1.13
same,"Relative sRNA promoter activity, AVERAGE","[8]; sRNA promoter, Control = 1",1.037
same,"Relative sRNA promoter activity, Sample1-3","[8]; sRNA promoter, single samples",0.9017 and 1.283 and 0.9275
same,"Relative HBV pgRNA/precore RNA level (Folds), AVERAGE","[9]; Fig. 1c, 6 days",0.9573 Folds
same,"Relative HBV transcript R1, Sample1-3","[9]; Suppl. fig. 12b, R1, single samples, ETV, Control = 1",0.9164 and 1.011 and 1.015
same,"Relative HBV transcript R2, AVERAGE","[9]; Suppl. fig. 12b, R2, ETV, Control = 1",1.028
same,"Relative HBV transcript R3, AVERAGE","[9]; Suppl. fig. 12b, R3, ETV, Control = 1",0.9829
same,"Relative HBV transcript R3, Sample1-3","[9]; Suppl. fig. 12b, R3, single samples, ETV, Control = 1",0.9794 and 0.8641 and 0.8947
same,"Relative secreted HBV DNA level (Folds), AVERAGE",[10]; HBV 1.2x adr (figure 4g),0.03628 Folds
same,"Relative secreted HBV DNA level (Folds), individual samples",[10]; HBV 1.2x adr,0.356 Folds and 6.706e-5 Folds and 0.0005754 Folds
same,"Relative intracellular HBV DNA level (Folds), AVERAGE",[11]; HBV 1.2x adr (figure 4h),0.1393 Folds
same,"Relative intracellular HBV DNA level (Folds), individual samples","[11]; HBV 1.2x adr, Sample1-3",0.1084 Folds and 0.1053 Folds and 0.1147 Folds
